From the supplement of paper PMC9663587

Columns and labels:
Pictilisib/GDC0941 = compound: CS(=O)(=O)N1CCN(Cc2cc3nc(-c4cccc5[nH]ncc45)nc(N4CCOCC4)c3s2)CC1 [Pictilisib/GDC0941]
[1] = compound: CCC1=CN=CN=C1N2CCN(CC2)CC3=NC4=C(N3)C=C(C=C4)C(F)(F)F
Tivantinib/ARQ197 = compound: O=C1NC(=O)[C@@H](c2cn3c4c(cccc24)CCC3)[C@@H]1c1c[nH]c2ccccc12 [Tivantinib/ARQ197]
BSJ-03-123 = compound: CC(=O)c1c(C)c2cnc(Nc3ccc(N4CCN(CCOCCOCCOCCNC(=O)COc5cccc6c5C(=O)N(C5CCC(=O)NC5=O)C6=O)CC4)cn3)nc2n(C2CCCC2)c1=O [BSJ-03-123]
Dasatinib = compound: Cc1nc(Nc2ncc(C(=O)Nc3c(C)cccc3Cl)s2)cc(N2CCN(CCO)CC2)n1 [Dasatinib]
[2] = compound: CNc1nc(-c2ccc3c(N)n[nH]c3c2)cc(N2C[C@@H](C(=O)NC3CCCCC3)CC[C@H]2C)n1
[3] = compound: CCc1cnn2c(NCc3ccc[n+]([O-])c3)cc(N3CCCC[C@H]3CCO)nc12
Alpelisib/BYL719 = compound: Cc1nc(NC(=O)N2CCC[C@H]2C(N)=O)sc1-c1ccnc(C(C)(C)C(F)(F)F)c1 [Alpelisib/BYL719]
Saracatinib/AZD0530 = compound: CN1CCN(CCOc2cc(OC3CCOCC3)c3c(Nc4c(Cl)ccc5c4OCO5)ncnc3c2)CC1 [Saracatinib/AZD0530]
[4] = compound: Cc1nn(C)c(COc2ccc(N3CCN(S(=O)(=O)N(C)C)CC3)cc2)c1-c1cccc2c(CCCOc3cccc4ccccc34)c(C(=O)O)n(CCN3CCOCC3)c12
INK128/MLN0128 = compound: CC(C)n1nc(-c2ccc3oc(N)nc3c2)c2c(N)ncnc21 [INK128/MLN0128]
THZ1 = compound: CN(C)C/C=C/C(=O)Nc1ccc(C(=O)Nc2cccc(Nc3ncc(Cl)c(-c4c[nH]c5ccccc45)n3)c2)cc1 [THZ1]
[5] = compound: COc1ccc2c(c1)[C@]1(C[C@H]1c1ccc3c(/C=C/c4ccc(CN5C[C@@H](C)O[C@@H](C)C5)cc4)n[nH]c3c1)C(=O)N2
[6] = compound: CCCCOc1c(C(=O)c2c(F)cc(C)cc2F)c[nH]c2nncc1-2
Volasertib/BI6727 = compound: CC[C@@H]1C(=O)N(C)c2cnc(Nc3ccc(C(=O)N[C@H]4CC[C@H](N5CCN(CC6CC6)CC5)CC4)cc3OC)nc2N1C(C)C [Volasertib/BI6727]
BVD523 = compound: CC(C)Nc1cc(-c2c[nH]c(C(=O)N[C@H](CO)c3cccc(Cl)c3)c2)c(Cl)cn1 [BVD523]
Buparlisib/NVP-BKM120 = compound: Nc1cc(C(F)(F)F)c(-c2cc(N3CCOCC3)nc(N3CCOCC3)n2)cn1 [Buparlisib/NVP-BKM120]
THZ-P1-2 = compound: CN(C)C/C=C/C(=O)NC1=CC=C(C=C1)C(=O)NC2=CC=CC(=C2)NC3=NC=NC(=C3)C4=CNC5=CC=CC=C54 [THZ-P1-2]
Ceritinib/LDK378 = compound: Cc1cc(Nc2ncc(Cl)c(Nc3ccccc3S(=O)(=O)C(C)C)n2)c(OC(C)C)cc1C1CCNCC1 [Ceritinib/LDK378]
Cediranib/AZD2171 = compound: COc1cc2c(Oc3ccc4[nH]c(C)cc4c3F)ncnc2cc1OCCCN1CCCC1 [Cediranib/AZD2171]
senexin b = compound: CN1CCN(C(=O)c2ccc3cc(CCNc4ncnc5ccc(C#N)cc45)ccc3c2)CC1 [senexin b]
Rucaparib = compound: CNCc1ccc(-c2[nH]c3cc(F)cc4c3c2CCNC4=O)cc1 [Rucaparib]
R0-3306 = compound: C1=CC2=C(C=CC(=C2)C=C3C(=O)NC(=NCC4=CC=CS4)S3)N=C1 [R0-3306]
LEE011/Ribociclib = compound: CN(C)C(=O)c1cc2cnc(Nc3ccc(N4CCNCC4)cn3)nc2n1C1CCCC1 [LEE011/Ribociclib]
AZD1775 = compound: C=CCn1c(=O)c2cnc(Nc3ccc(N4CCN(C)CC4)cc3)nc2n1-c1cccc(C(C)(C)O)n1 [AZD1775]
AZD5363 = compound: NC1(C(=O)N[C@@H](CCO)c2ccc(Cl)cc2)CCN(c2nc[nH]c3nccc2-3)CC1 [AZD5363]
AZD7762 = compound: NC(=O)Nc1cc(-c2cccc(F)c2)sc1C(=O)N[C@H]1CCCNC1 [AZD7762]
Torin2 = compound: C1=CC(=CC(=C1)N2C(=O)C=CC3=CN=C4C=CC(=CC4=C32)C5=CN=C(C=C5)N)C(F)(F)F [Torin2]
AZD2014 = compound: CNC(=O)c1cccc(-c2ccc3c(N4CCOC[C@@H]4C)nc(N4CCOC[C@@H]4C)nc3n2)c1 [AZD2014]
SHP099 = compound: CC1(CCN(CC1)C2=CN=C(C(=N2)N)C3=C(C(=CC=C3)Cl)Cl)N [SHP099]
[7] = compound: CC(=O)c1c(C)c2cnc(Nc3ccc(N4CCNCC4)cn3)nc2n(C2CCCC2)c1=O
Neratinib/HKI272 = compound: CCOc1cc2ncc(C#N)c(Nc3ccc(OCc4ccccn4)c(Cl)c3)c2cc1NC(=O)/C=C/CN(C)C [Neratinib/HKI272]
Vorinostat = compound: O=C(CCCCCCC(=O)Nc1ccccc1)NO [Vorinostat]
Cabozantinib = compound: COc1cc2nccc(Oc3ccc(NC(=O)C4(C(=O)Nc5ccc(F)cc5)CC4)cc3)c2cc1OC [Cabozantinib]
[8] = compound: CO[C@@H](C)Cn1c(=O)n(C)c2cnc3ccc(-c4cncc(C(C)(C)O)c4)cc3c21
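Also: breast cancer and non-malignant breast epithelial cell lines, Deep Dye Drop or Dye Drop imaging, nine half-log doses, GR normalized to time-zero plates and DMSO-only controls.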

| Cell Line | GR50, 72 h (Pictilisib/GDC0941) [µM] | GR50, 72 h [1] [µM] | GR50, 72 h (Tivantinib/ARQ197) [µM] | GR50, 72 h (BSJ-03-123) [µM] | GR50, 72 h (Dasatinib) [µM] | GR50, 72 h [2] [µM] | GR50, 72 h [3] [µM] | GR50, 72 h (Alpelisib/BYL719) [µM] | GR50, 72 h (Saracatinib/AZD0530) [µM] | GR50, 72 h [4] [µM] | GR50, 72 h (INK128/MLN0128) [µM] | GR50, 72 h (THZ1) [µM] | GR50, 72 h [5] [µM] | GR50, 72 h [6] [µM] | GR50, 72 h (Volasertib/BI6727) [µM] | GR50, 72 h (BVD523) [µM] | GR50, 72 h (Buparlisib/NVP-BKM120) [µM] | GR50, 72 h (THZ-P1-2) [µM] | GR50, 72 h (Ceritinib/LDK378) [µM] | GR50, 72 h (Cediranib/AZD2171) [µM] | GR50, 72 h (senexin b) [µM] | GR50, 72 h (Rucaparib) [µM] | GR50, 72 h (R0-3306) [µM] | GR50, 72 h (LEE011/Ribociclib) [µM] | GR50, 72 h (AZD1775) [µM] | GR50, 72 h (AZD5363) [µM] | GR50, 72 h (AZD7762) [µM] | GR50, 72 h (Torin2) [µM] | GR50, 72 h (AZD2014) [µM] | GR50, 72 h (SHP099) [µM] | GR50, 72 h [7] [µM] | GR50, 72 h (Neratinib/HKI272) [µM] | GR50, 72 h (Vorinostat) [µM] | GR50, 72 h (Cabozantinib) [µM] | GR50, 72 h [8] [µM] |
| --- | --- | --- | --- | --- | --- | --- | --- | --- | --- | --- | --- | --- | --- | --- | --- | --- | --- | --- | --- | --- | --- | --- | --- | --- | --- | --- | --- | --- | --- | --- | --- | --- | --- | --- | --- |
| MDAMB436 | 5.27 | 4.75 | 0.368 | 7.25 | > 10 | > 10 | 0.0143 | > 10 | > 10 | > 10 | 0.0241 | 0.135 | 0.00237 | 1.02 | 0.00518 | > 10 | 1.18 | 4.3 | 0.499 | 3.61 | 8.65 | 0.828 | 4.65 | > 10 | 0.175 | > 10 | 0.04 | 0.0412 | > 10 | > 10 | > 3.16 | 0.715 | 2.68 | 6.5 |  |
| MCF10A (GM) |  |  |  | 2.21 |  | > 10 |  |  |  |  |  | 0.0449 | 0.00625 | 0.355 |  | 1.51 |  | 7.51 |  |  | > 10 | > 10 | 6.32 | > 10 | 5.15 | > 10 |  |  | 0.034 | > 10 |  |  |  |  | 0.00578 |
| MDAMB175VII | 0.345 | 1.34 | 0.267 | 0.301 | 0.0162 | 0.0785 | 0.0118 | 0.154 | 0.0646 | > 10 | 0.00349 | 0.0271 | 0.00391 | 0.00153 | 0.0114 | 0.255 | 0.102 | 3.1 | 2.56 | 4.54 | 0.387 | > 10 |  |  | 0.0486 | 0.0495 | 0.0769 | 0.0022 | < 0.001 | 2.47 | 0.00212 | 0.00127 | 0.546 | 7.74 | < 0.001 |
| HCC1569 | 0.599 | > 10 | 0.992 | 2.86 | 0.0769 | > 10 | 0.0164 | 5.28 | 3.28 | > 10 | 0.0132 | 0.0283 | 0.00952 | 0.0109 | 0.0189 | > 10 | 0.908 | 4.75 | 4.5 | > 10 | > 10 | > 10 | 4.54 | > 10 | 0.00634 | 0.358 | 0.0361 | 0.0105 |  | > 10 | > 3.16 | 0.0891 | 3.31 | > 10 |  |
| HCC202 | 0.208 | > 10 | 0.816 | 3.36 | 0.0186 | 0.842 | 0.0137 | 0.465 | 0.475 | > 10 | 0.0112 | 0.0212 |  | 0.0699 | 0.015 | > 10 | 0.431 | 6.48 | 4.75 | 7.85 | > 10 | > 10 | 5.71 | > 10 | 0.051 | > 10 | 0.0585 | 0.0137 | 0.00237 | > 10 | > 3.16 | 0.0317 | 3.57 | > 10 | 0.00541 |
| SUM44PE | 0.435 | 6.53 | 0.0449 | 0.818 |  | 4.21 | 0.00834 | 0.65 | 6.6 | 3.31 | 0.0102 | 0.00443 | 0.000792 | < 0.001 | 0.00884 | 2.7 | 0.412 | 0.196 | 2.56 | 9.59 | 1.77 | > 10 | 1.91 | 2.54 | 0.237 | 0.0475 | 0.0479 | 0.00502 | 0.00197 | > 10 | 0.212 | 0.0248 | 1.86 | 5.47 | < 0.001 |
| ZR7530 | 0.217 | 5.13 | 0.554 | 0.58 | 0.372 |  | 0.0163 | 0.246 | 0.533 | > 10 | 0.0153 | 0.0259 | 0.00327 | 0.152 | 0.00621 | > 10 | 0.534 | 1.64 | 1.75 | 7.57 | 1.48 | > 10 | 6.17 | 0.692 | 1.91 | 0.192 | 1.12 | 0.0216 | 0.00146 | > 10 | 0.0889 | 0.000681 | 0.844 |  |  |
